Here are results for 34 compounds from US8507536B2, “Gonadotropin-releasing hormone receptor antagonists and methods relating thereto” (Neurocrine Biosciences, Inc., priority 2007, dated 2013).

Bounds are passed on as bounds.

In this assay the target is T1, human GnRH receptor (Homo sapiens, UniProt P30968).
T1 construct: expressed in transfected cells; membrane preparations
T1 sequence (P30968 1-328): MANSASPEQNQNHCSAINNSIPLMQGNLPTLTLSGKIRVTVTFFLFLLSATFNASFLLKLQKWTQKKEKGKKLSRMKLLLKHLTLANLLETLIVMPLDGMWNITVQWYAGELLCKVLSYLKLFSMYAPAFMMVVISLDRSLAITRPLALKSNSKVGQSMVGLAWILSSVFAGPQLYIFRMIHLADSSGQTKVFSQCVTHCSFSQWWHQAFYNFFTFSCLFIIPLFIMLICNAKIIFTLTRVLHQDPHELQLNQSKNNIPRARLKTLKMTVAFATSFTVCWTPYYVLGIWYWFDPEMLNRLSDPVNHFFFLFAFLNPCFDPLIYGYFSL
Kind of assay: peptide competitive human receptor binding assays (radioligand displacement). The following applies: tested in one or more of the peptide competitive human receptor binding assays. The procedure: HEK293 cells stably transfected with the human GnRH receptor are grown for two days after achieving confluence then are harvested by striking tissue culture flasks against a firm surface. Cells are collected by centrifugation at 1000 g for […]. Cell pellets are resuspended in 5% sucrose and homogenized using a polytron homogenizer for two 15 second homogenization steps. Cell homogenates are then centrifuged for 5 minutes at 3000 g to remove nuclei and the supernatant subsequently centrifuged for 30 minutes at 44,000 g to collect the membrane fraction. The membrane pellet is resuspended in GnRH binding buffer (10 mM HEPES, pH 7.5, 150 mM NaCl and 0.1% BSA) and aliquots immediately snap-frozen in liquid nitrogen and stored at −80° C. Protein content of the membrane suspension is determined using the Bio-Rad protein assay kit (Bio-Rad).
RBL cells stably transfected with the human GnRH receptor are grown to 80% confluency prior to harvesting. The cells are incubated at 37° C. for 10 min in 0.5 mM EDTA/PBS (Ca^++, Mg^++ free), and are dislodged from the plate by gentle rapping of the flasks. Cells are collected and pelleted by centrifugation at 1000 g for 5 minutes. Cell pellets are resuspended in buffer (DPBS supplemented with 10 mM MgCl2, 2 mM EGTA, pH=7.4), and cell lysis is performed using a pressure cell and applying N2 at a pressure of 900 psi for 30 min at 4° C. Unbroken cells and larger debris were removed by centrifugation at 1200 g for 10 min at 4° C. The cell membrane supernatant is then centrifuged at 45,000 g and the resulting membrane pellet is resuspended in assay buffer and homogenized on ice using a tissue homogenizer. Protein concentrations are determined using the Coomassie Plus Protein Reagent kit. Membranes are aliquoted and stored at −80° C. until ready for use.
Radioligand binding displacement assays using the peptide radioligands are performed in buffer containing 10 mM HEPES, 150 mM NaCl and 0.1% BSA, pH=7.5. Radioligand binding assays employing the use of [^3H]-1-(2,6-difluorobenzyl)-3-[(2R)-amino-2-phenethyl]-5-(2-fluoro-3-methoxyphenyl)-6-methyluracil (here the 3-methoxy group is tritiated) are run in buffer containing 50 mM Tris, 150 mM NaCl, 5 mM MgCl2, 0.01% saponin and 0.5 mM EDTA, pH=7.5. Radioligand displacement assays are performed by incubating radioligand ([^125I-Tyr^5, DLeu^6, NMeLeu^7, Pro^9-NEt]GnRH (0.1 nM), [His^5, ^125I-DTyr^6]GnRH (0.2 nM) (31) or [^3H]-1-(2,6-difluorobenzyl)-3-[(2R)-amino-2-phenethyl]-5-(2-fluoro-3-methoxyphenyl)-6-methyluracil (1 nM)), unlabeled competitors at concentrations ranging from 0.3 pM to 10 μM, and membranes for 2 hrs at rt. 10 to 20 μg protein/well is used from membrane preparations for human, monkey and rabbit GnRH receptor. 5 μg/well and 60 μg/well of membranes are used for rat and dog GnRH receptors, respectively. Binding assays are performed in either Millipore 96-well GF/C filtration plates (for ([^125I-Tyr^5, DLeu^6, NMeLeu^7, Pro^9-NEt]GnRH assays), or in 96 well low binding plates, which are subsequently filtered onto GF/C Unifilters. Filters are pretreated with 0.5% PEI for 30 min prior to use. Reactions are terminated by rapid vacuum filtration, and the filters are washed twice with 250 μL ice cold PBS pH=7.4 (0.01% Tween-20 is included in wash media for [His^5, ^125I-DTyr^6]GnRH and [^3H]-1-(2,6-difluorobenzyl)-3-[(2R)-amino-2-phenethyl]-5-(2-fluoro-3-methoxyphenyl)-6-methyluracil radioligands). The filters are dried, and the Millipore filters are monitored for radioactivity using a Cobra II gamma counter (Perkin Elmer Life Sciences). For assays filtered onto the GF/C Unifilter plates, 50 μL scintillation fluid is added to each filter, and radioactivity is monitored using a TopCount NXT. For iodinated radioligands, total radioligand is monitored on a gamma counter, and for the tritiated radioligand, total radioligand is monitored using a Perkin Elmer 1600TR liquid scintillation counter. […]
(Loss of bound radioactivity is the signal in a displacement assay; it reports binding, not function.)

A word on the Ki: it is a dissociation constant, usually derived from enzyme kinetics or from competition with a known ligand. Read a high Ki as weaker binding. On to `N#Cc1cc(C(F)(F)F)ncc1-c1cc(S(=O)(=O)N2CCCCc3ccccc32)c(OCCC(=O)O)cc1Cl` [Example 10-2, 3-[5-chloro-4-(4-cyano-6-trifluoromethyl-pyridin-3-yl)-2-(2,3,4,5-tetrahydro-benzo[b]azepine-1-sulfonyl)-phenoxy]-propionic acid], for which the Ki is not above 100 nM.

`CC1(C)CCN(S(=O)(=O)c2cc(-c3cnc(C(F)(F)F)cc3C#N)c(Cl)cc2OCCCCO)c2ccccc21` [Example 11-1, 5-[2-chloro-5-(4,4-dimethyl-3,4-dihydro-2H-quinoline-1-sulfonyl)-4-(4-hydroxy-butoxy)-phenyl]-2-trifluoromethyl-isonicotinonitrile]: the Ki is not above 100 nM.

As to `CC1(C)CCN(S(=O)(=O)c2cc(-c3cnc(C(F)(F)F)cc3C#N)c(Cl)cc2OCCO)c2ccccc21` [Example 11-2, 5-[2-chloro-5-(4,4-dimethyl-3,4-dihydro-2H-quinoline-1-sulfonyl)-4-(2-hydroxy-ethoxy)-phenyl]-2-trifluoromethyl-isonicotinonitrile], the Ki is not above 100 nM.

Compound `CC1(C)CCN(S(=O)(=O)c2cc(-c3cnc(C(F)(F)F)cc3C#N)c(Cl)cc2OCCCO)c2ccccc21` [Example 11-3, 5-[2-chloro-5-(4,4-dimethyl-3,4-dihydro-2H-quinoline-1-sulfonyl)-4-(3-hydroxy-propoxy)-phenyl]-2-trifluoromethyl-isonicotinonitrile] yielded a Ki not above 100 nM.

`CC1(C)CCN(S(=O)(=O)c2cc(-c3cnc(C(F)(F)F)cc3C#N)c(Cl)cc2OCCCC(=O)O)c2ccccc21` [Example 12-1, 4-[5-chloro-4-(4-cyano-6-trifluoromethyl-pyridin-3-yl)-2-(4,4-dimethyl-3,4-dihydro-2H-quinoline-1-sulfonyl)-phenoxy]-butyric acid]: the Ki was not above 100 nM.

Regarding `CC1(C)CCN(S(=O)(=O)c2cc(-c3cnc(C(F)(F)F)cc3C#N)c(Cl)cc2OCC(=O)O)c2ccccc21` [Example 12-2, [5-chloro-4-(4-cyano-6-trifluoromethyl-pyridin-3-yl)-2-(4,4-dimethyl-3,4-dihydro-2H-quinoline-1-sulfonyl)-phenoxy]-acetic acid], the Ki was not above 100 nM.

On to `CC1(C)CCN(S(=O)(=O)c2cc(-c3cnc(C(F)(F)F)cc3C#N)c(Cl)cc2OCCC(=O)O)c2ccccc21` [Example 12-3, 3-[5-chloro-4-(4-cyano-6-trifluoromethyl-pyridin-3-yl)-2-(4,4-dimethyl-3,4-dihydro-2H-quinoline-1-sulfonyl)-phenoxy]-propionic acid], for which the inhibitory constant (Ki) was not above 100 nM.

Take `Cc1cc(C(F)(F)F)nc(=O)n1-c1cc(S(=O)(=O)N2CCCCc3ccccc32)ccc1Cl` [Example 13-1, 1-[2-chloro-5-(2,3,4,5-tetrahydro-benzo[b]azepine-1-sulfonyl)-phenyl]-6-methyl-4-trifluoromethyl-1H-pyrimidin-2-one]: the Ki is not above 100 nM.

The compound `COc1cc(Cl)c(-c2cnc(C(F)(F)F)cc2C#N)cc1S(=O)(=O)N(C)c1ccccc1` [Example 15-1, 4-chloro-5-(4-cyano-6-trifluoromethyl-pyridin-3-yl)-2-methoxy-N-methyl-N-phenyl-benzenesulfonamide] had an inhibition constant (Ki) not above 100 nM.

The compound `COc1cc(Cl)c(-c2cnc(C(F)(F)F)cc2C#N)cc1S(=O)(=O)N1CCC(C)(C)c2ccccc21` [Example 15-2] gave a Ki not above 100 nM.

`COc1cc(Cl)c(-c2cnc(C(F)(F)F)cc2C#N)cc1S(=O)(=O)N(C)c1cccc(Cl)c1` [Example 15-3] yielded an inhibitory constant (Ki) not above 100 nM.

As to `COc1cc(Cl)c(-c2cnc(C(F)(F)F)cc2C#N)cc1S(=O)(=O)N(C)c1ccccc1C` [Example 15-5], the Ki was not above 100 nM.

For the compound `COc1cc(Cl)c(-c2cnc(C(F)(F)F)cc2C#N)cc1S(=O)(=O)N(C)c1ccc(F)cc1` [Example 15-6], the Ki was not above 100 nM.

`COc1cc(Cl)c(-c2cnc(C(F)(F)F)cc2C#N)cc1S(=O)(=O)N(C)c1ccc(Cl)c(Cl)c1` [Example 15-8] had an inhibitory constant (Ki) not above 100 nM.

Compound `COc1cc(Cl)c(-c2cnc(C(F)(F)F)cc2C#N)cc1S(=O)(=O)N(C)c1cccc(C)c1` [Example 15-9] returned a Ki not above 100 nM.

For the compound `COc1cc(Cl)c(-c2cnc(C(F)(F)F)cc2C#N)cc1S(=O)(=O)N(C)c1ccc(Cl)cc1` [Example 15-10], the inhibition constant Ki was not above 100 nM.

In the case of `COc1cc(Cl)c(-c2cnc(C(F)(F)F)cc2C#N)cc1S(=O)(=O)N(C)c1cccc(F)c1` [Example 15-11], the Ki is not above 100 nM.

As to `COc1cc(Cl)c(-c2cnc(C(F)(F)F)cc2C#N)cc1S(=O)(=O)N(C)c1ccccc1F` [Example 15-12], the inhibition constant Ki was not above 100 nM.

The compound `COc1cccc(N(C)S(=O)(=O)c2cc(-c3cnc(C(F)(F)F)cc3C#N)c(Cl)cc2OC)c1` [Example 15-14] showed an inhibitory constant (Ki) not above 100 nM.

`COc1cc(Cl)c(-c2cnc(C(F)(F)F)cc2C#N)cc1S(=O)(=O)N(C)c1c(C)cccc1OC` [Example 15-15] returned a Ki not above 100 nM.

As to `COc1ccccc1N(C)S(=O)(=O)c1cc(-c2cnc(C(F)(F)F)cc2C#N)c(Cl)cc1OC` [Example 15-16], the Ki was not above 100 nM.

For the compound `COc1cc(Cl)c(-c2cnc(C(F)(F)F)cc2C#N)cc1S(=O)(=O)N1CCCCc2ccccc21` [Example 15-17], the inhibition constant (Ki) is not above 100 nM.

As to `COc1cc(Cl)c(-c2cnc(C(F)(F)F)cc2C#N)cc1S(=O)(=O)N(C)c1ccccn1` [Example 15-18], the Ki was not above 100 nM.

`COc1cc(Cl)c(-c2cnc(C(F)(F)F)cc2C#N)cc1S(=O)(=O)N(C)c1ncccc1C` [Example 15-19] had an inhibition constant Ki not above 100 nM.

`COc1cccc(N(C)S(=O)(=O)c2cc(-c3cnc(C(F)(F)F)cc3C#N)c(Cl)cc2OC)n1` [Example 15-20] gave a Ki not above 100 nM.

`COc1cc(Cl)c(-c2cnc(C(F)(F)F)cc2C#N)cc1S(=O)(=O)N(C)CC(C)C` [Example 15-21] had a Ki not above 100 nM.

For the compound `CCOC(=O)CN(C)S(=O)(=O)c1cc(-c2cnc(C(F)(F)F)cc2C#N)c(Cl)cc1OC` [Example 15-26], the Ki is not above 100 nM.

`CCCCNS(=O)(=O)c1cc(-c2cnc(C(F)(F)F)cc2C#N)c(Cl)cc1OC` [Example 15-28]: the Ki was not above 100 nM.

`COc1ccccc1CN(C)S(=O)(=O)c1cc(-c2cnc(C(F)(F)F)cc2C#N)c(Cl)cc1OC` [Example 15-29] yielded an inhibition constant (Ki) not above 100 nM.

`COc1cc(Cl)c(-c2cnc(C(F)(F)F)cc2C#N)cc1S(=O)(=O)N(C)CC(C)(C)C` [Example 15-30] came in with a Ki not above 100 nM.

Regarding `COc1cccc(CN(C)S(=O)(=O)c2cc(-c3cnc(C(F)(F)F)cc3C#N)c(Cl)cc2OC)c1` [Example 15-32], the Ki was not above 100 nM.

`COc1cc(Cl)c(-c2cnc(C(F)(F)F)cc2C#N)cc1S(=O)(=O)N(C)Cc1ccc(F)cc1` [Example 15-33] had an inhibitory constant (Ki) not above 100 nM.

In turn, `COc1cc(Cl)c(-c2cnc(C(F)(F)F)cc2C#N)cc1S(=O)(=O)N(C)Cc1cccc(F)c1` [Example 15-34] gave a Ki not above 100 nM.

Consider `COc1cc(Cl)c(-c2cnc(C(F)(F)F)cc2C#N)cc1S(=O)(=O)N(C)Cc1ccccc1F` [Example 15-35], for which the inhibition constant Ki was not above 100 nM.
